In ChEMBL document CHEMBL4002566, “S-substituted 3,5-dinitrophenyl 1,3,4-oxadiazole-2-thiols and tetrazole-5-thiols as highly efficient antitubercular agents” (Eur J Med Chem, 2017):
In brackets after ≈: the same amount, converted by molar mass.

What was measured:
Assay type in all cases: functional
Mycobacterium kansasii [1] = test: Antimycobacterial activity against Mycobacterium kansasii CNCTC My 235/80 after 7 days by micromethod; conditions: CNCTC My 235/80, 168 h
Mycobacterium kansasii [2] = test: Antimycobacterial activity against Mycobacterium kansasii 6509/96 clinical isolate after 21 days by micromethod; conditions: 6509/96, 504 h
Mycobacterium kansasii [3] = test: Antimycobacterial activity against Mycobacterium kansasii CNCTC My 235/80 after 21 days by micromethod; conditions: CNCTC My 235/80, 504 h
Mycobacterium kansasii [4] = test: Antimycobacterial activity against Mycobacterium kansasii 6509/96 clinical isolate after 7 days by micromethod; conditions: 6509/96, 168 h
Mycobacterium avium [5] = test: Antimycobacterial activity against Mycobacterium avium CNCTC My 330/88 after 21 days by micromethod; conditions: CNCTC My 330/88, 504 h
Mycobacterium avium [6] = test: Antimycobacterial activity against Mycobacterium avium CNCTC My 330/88 after 14 days by micromethod; conditions: CNCTC My 330/88, 336 h
[7] = system: Mycobacterium tuberculosis; test: Antimycobacterial activity against Mycobacterium tuberculosis CNCTC My 331/88 after 21 days by micromethod; conditions: CNCTC My 331/88, 504 h
Mycobacterium kansasii [8] = test: Antimycobacterial activity against Mycobacterium kansasii 6509/96 clinical isolate after 14 days by micromethod; conditions: 6509/96, 336 h
[9] = system: Mycobacterium tuberculosis; test: Antimycobacterial activity against Mycobacterium tuberculosis CNCTC My 331/88 after 14 days by micromethod; conditions: CNCTC My 331/88, 336 h
Mycobacterium kansasii [10] = test: Antimycobacterial activity against Mycobacterium kansasii CNCTC My 235/80 after 14 days by micromethod; conditions: CNCTC My 235/80, 336 h

`Nc1cc(-c2nnc(SCc3ccc([N+](=O)[O-])cc3)o2)cc([N+](=O)[O-])c1` showed an MIC (Mycobacterium kansasii [1]) of 125 µM (≈ 46.7 µg/mL), an MIC (Mycobacterium kansasii [2]) of 125 µM (≈ 46.7 µg/mL) and an MIC (Mycobacterium kansasii [3]) of 125 µM (≈ 46.7 µg/mL). The MIC (Mycobacterium kansasii [4]) was 125 µM (≈ 46.7 µg/mL), the MIC (Mycobacterium avium [5]) was 125 µM (≈ 46.7 µg/mL) and the MIC (Mycobacterium avium [6]) was 125 µM (≈ 46.7 µg/mL). It also gave an MIC [7] of 125 µM (≈ 46.7 µg/mL), an MIC (Mycobacterium kansasii [8]) of 125 µM (≈ 46.7 µg/mL) and an MIC [9] of 125 µM (≈ 46.7 µg/mL). For the same compound, the MIC (Mycobacterium kansasii [10]) was 125 µM (≈ 46.7 µg/mL).
`CC(=O)Nc1cc(-c2nnc(SCc3ccc(Br)cc3)o2)cc([N+](=O)[O-])c1` gave an MIC (Mycobacterium kansasii [1]) greater than 500 µM, an MIC (Mycobacterium kansasii [2]) greater than 500 µM and an MIC (Mycobacterium kansasii [3]) greater than 500 µM. It also gave an MIC (Mycobacterium kansasii [4]) greater than 500 µM, an MIC (Mycobacterium avium [5]) greater than 500 µM and an MIC (Mycobacterium avium [6]) greater than 500 µM. For the same compound, the MIC [7] was greater than 500 µM, the MIC (Mycobacterium kansasii [8]) was greater than 500 µM and the MIC [9] was greater than 500 µM. For the same compound, the MIC (Mycobacterium kansasii [10]) was greater than 500 µM.
Work on `O=[N+]([O-])c1cc(-c2nnc(SCc3ccc(Cl)cc3)o2)cc(C(F)(F)F)c1` yielded an MIC (Mycobacterium kansasii [1]) of 1 µM (≈ 0.416 µg/mL), an MIC (Mycobacterium kansasii [2]) of 1 µM (≈ 0.416 µg/mL) and an MIC (Mycobacterium kansasii [3]) of 1 µM (≈ 0.416 µg/mL). It also gave an MIC (Mycobacterium kansasii [4]) of 1 µM (≈ 0.416 µg/mL), an MIC (Mycobacterium avium [5]) greater than 250 µM and an MIC (Mycobacterium avium [6]) greater than 250 µM. For the same compound, the MIC [7] was 0.5 µM (≈ 0.208 µg/mL), the MIC (Mycobacterium kansasii [8]) was 1 µM (≈ 0.416 µg/mL) and the MIC [9] was 0.5 µM (≈ 0.208 µg/mL). For the same compound, the MIC (Mycobacterium kansasii [10]) was 1 µM (≈ 0.416 µg/mL).
For `CC(=O)Nc1cc(-c2nnc(SCc3ccc([N+](=O)[O-])cc3)o2)cc([N+](=O)[O-])c1`, the MIC (Mycobacterium kansasii [1]) was greater than 500 µM, the MIC (Mycobacterium kansasii [2]) was greater than 500 µM and the MIC (Mycobacterium kansasii [3]) was greater than 500 µM. The MIC (Mycobacterium kansasii [4]) was greater than 500 µM, the MIC (Mycobacterium avium [5]) was greater than 500 µM and the MIC (Mycobacterium avium [6]) was greater than 500 µM. It also gave an MIC [7] greater than 500 µM, an MIC (Mycobacterium kansasii [8]) greater than 500 µM and an MIC [9] greater than 500 µM. It also gave an MIC (Mycobacterium kansasii [10]) greater than 500 µM.
For `Nc1cc(-c2nnc(SCc3ccccc3)o2)cc([N+](=O)[O-])c1`, the MIC (Mycobacterium kansasii [1]) was 250 µM (≈ 82.1 µg/mL), the MIC (Mycobacterium kansasii [2]) was 250 µM (≈ 82.1 µg/mL) and the MIC (Mycobacterium kansasii [3]) was 250 µM (≈ 82.1 µg/mL). It also gave an MIC (Mycobacterium kansasii [4]) of 250 µM (≈ 82.1 µg/mL), an MIC (Mycobacterium avium [5]) of 250 µM (≈ 82.1 µg/mL) and an MIC (Mycobacterium avium [6]) of 250 µM (≈ 82.1 µg/mL). The MIC [7] was 250 µM (≈ 82.1 µg/mL), the MIC (Mycobacterium kansasii [8]) was 250 µM (≈ 82.1 µg/mL) and the MIC [9] was 250 µM (≈ 82.1 µg/mL). The MIC (Mycobacterium kansasii [10]) was 250 µM (≈ 82.1 µg/mL).
`O=[N+]([O-])c1cc(-c2nnc(SCc3ccccc3)o2)cc([N+](=O)[O-])c1` showed an MIC (Mycobacterium kansasii [1]) of 0.25 µM (≈ 0.0896 µg/mL), an MIC (Mycobacterium kansasii [2]) of 0.5 µM (≈ 0.179 µg/mL) and an MIC (Mycobacterium kansasii [3]) of 0.5 µM (≈ 0.179 µg/mL). For the same compound, the MIC (Mycobacterium kansasii [4]) was 0.25 µM (≈ 0.0896 µg/mL), the MIC (Mycobacterium avium [5]) was 4 µM (≈ 1.43 µg/mL) and the MIC (Mycobacterium avium [6]) was 4 µM (≈ 1.43 µg/mL). It also gave an MIC [7] of 0.5 µM (≈ 0.179 µg/mL), an MIC (Mycobacterium kansasii [8]) of 0.5 µM (≈ 0.179 µg/mL) and an MIC [9] of 0.5 µM (≈ 0.179 µg/mL). The MIC (Mycobacterium kansasii [10]) was 0.5 µM (≈ 0.179 µg/mL).
Compound `O=[N+]([O-])c1cc(O)cc(-c2nnc(SCc3ccc(Cl)c(Cl)c3)o2)c1` has an MIC (Mycobacterium kansasii [1]) greater than 250 µM, an MIC (Mycobacterium kansasii [2]) greater than 250 µM and an MIC (Mycobacterium kansasii [3]) greater than 250 µM. It also gave an MIC (Mycobacterium kansasii [4]) greater than 250 µM, an MIC (Mycobacterium avium [5]) greater than 250 µM and an MIC (Mycobacterium avium [6]) greater than 250 µM. It also gave an MIC [7] greater than 250 µM, an MIC (Mycobacterium kansasii [8]) greater than 250 µM and an MIC [9] greater than 250 µM. For the same compound, the MIC (Mycobacterium kansasii [10]) was greater than 250 µM.
`O=[N+]([O-])c1cc(-c2nnc(SCc3ccc(Cl)c(Cl)c3)o2)cc(C(F)(F)F)c1` gave an MIC (Mycobacterium kansasii [1]) of 0.5 µM (≈ 0.225 µg/mL), an MIC (Mycobacterium kansasii [2]) of 1 µM (≈ 0.45 µg/mL) and an MIC (Mycobacterium kansasii [3]) of 1 µM (≈ 0.45 µg/mL). For the same compound, the MIC (Mycobacterium kansasii [4]) was 0.5 µM (≈ 0.225 µg/mL), the MIC (Mycobacterium avium [5]) was greater than 250 µM and the MIC (Mycobacterium avium [6]) was greater than 250 µM. The MIC [7] was 0.5 µM (≈ 0.225 µg/mL), the MIC (Mycobacterium kansasii [8]) was 1 µM (≈ 0.45 µg/mL) and the MIC [9] was 0.5 µM (≈ 0.225 µg/mL). For the same compound, the MIC (Mycobacterium kansasii [10]) was 1 µM (≈ 0.45 µg/mL).
For `COc1ccc(CSc2nnc(-c3cc(NC(C)=O)cc([N+](=O)[O-])c3)o2)cc1`, the MIC (Mycobacterium kansasii [1]) was greater than 1000 µM, the MIC (Mycobacterium kansasii [2]) was greater than 1000 µM and the MIC (Mycobacterium kansasii [3]) was greater than 1000 µM. The MIC (Mycobacterium kansasii [4]) was greater than 1000 µM, the MIC (Mycobacterium avium [5]) was greater than 500 µM and the MIC (Mycobacterium avium [6]) was greater than 500 µM. The MIC [7] was greater than 1000 µM, the MIC (Mycobacterium kansasii [8]) was greater than 1000 µM and the MIC [9] was greater than 1000 µM. For the same compound, the MIC (Mycobacterium kansasii [10]) was greater than 1000 µM.
For `O=[N+]([O-])c1cc(-c2nnc(SCc3ccc(Cl)cc3Cl)o2)cc([N+](=O)[O-])c1`, the MIC (Mycobacterium kansasii [1]) was 0.03 µM (≈ 0.0128 µg/mL), the MIC (Mycobacterium kansasii [2]) was 0.03 µM (≈ 0.0128 µg/mL) and the MIC (Mycobacterium kansasii [3]) was 0.06 µM (≈ 0.0256 µg/mL). The MIC (Mycobacterium kansasii [4]) was 0.03 µM (≈ 0.0128 µg/mL), the MIC (Mycobacterium avium [5]) was 250 µM (≈ 107 µg/mL) and the MIC (Mycobacterium avium [6]) was 250 µM (≈ 107 µg/mL). The MIC [7] was 0.03 µM (≈ 0.0128 µg/mL), the MIC (Mycobacterium kansasii [8]) was 0.03 µM (≈ 0.0128 µg/mL) and the MIC [9] was 0.03 µM (≈ 0.0128 µg/mL). It also gave an MIC (Mycobacterium kansasii [10]) of 0.06 µM (≈ 0.0256 µg/mL).
`Nc1cc(-c2nnc(SCc3ccc(Br)cc3)o2)cc([N+](=O)[O-])c1` showed an MIC (Mycobacterium kansasii [1]) of 125 µM (≈ 50.9 µg/mL), an MIC (Mycobacterium kansasii [2]) of 125 µM (≈ 50.9 µg/mL) and an MIC (Mycobacterium kansasii [3]) of 125 µM (≈ 50.9 µg/mL). For the same compound, the MIC (Mycobacterium kansasii [4]) was 125 µM (≈ 50.9 µg/mL), the MIC (Mycobacterium avium [5]) was 125 µM (≈ 50.9 µg/mL) and the MIC (Mycobacterium avium [6]) was 125 µM (≈ 50.9 µg/mL). For the same compound, the MIC [7] was 125 µM (≈ 50.9 µg/mL), the MIC (Mycobacterium kansasii [8]) was 125 µM (≈ 50.9 µg/mL) and the MIC [9] was 125 µM (≈ 50.9 µg/mL). The MIC (Mycobacterium kansasii [10]) was 125 µM (≈ 50.9 µg/mL).
